Measurements as given in patent US20100137261A1, “Method for treating aortic stenosis with non-antibacterial tetracycline formulations” (priority 2004, published 2010).
Structures can show the parent of a compound that is named as a salt. Where two headings read alike, the source gives them in different places.

Assays:
[1] = tested on: matrix metalloproteinase-9 (MMP-9) synthesis; test: Stenotic valve tissue culture, gelatinase (MMP-2 and MMP-9) assay; type: cell-based
Experimental: The study was conducted using tissue collected from four surgically removed, stenotic tricuspid valves. […] Gelatinases (MMP-2 and MMP-9) from the valve tissue samples were assayed. The analyzed bands were related to the total protein measured using a Bio-Rad DC Protein Assay Kit (Bio-Rad, Hercules, Calif.).

[2] = Serum levels after oral dosing in humans; conditions: dose of about 10 to about 20 mg/day
[3] = single dose of two 100 mg minocycline HCl tablets, adult human; cited from earlier work
[4] = 250 mg tetracycline HCl every six hours over a twenty-four hour period; cited from earlier work
[5] = 1 μM, stenotic tricuspid valve tissue incubated for ten days

Compound: NC(=O)C1=C(O)C[C@@H]2C[C@@H]3Cc4cccc(O)c4C(=O)C3=C(O)[C@]2(O)C1=O [CMT-3, 6-demethyl-6-deoxy-4-de(dimethylamino)tetracycline]
- MMP-9 inhibitory effect [1]: inhibitory effect was seen
- comparative efficiency of impact on MMP-9 synthesis [1]: most efficient inhibitor of MMP-9 synthesis
- expression of MMP-9 / MMP-9 synthesis [1]: decreased significantly from day 6 to the end of the culture
- serum levels in humans [2]: about 1.0 μg/ml

Compound: CC1c2cccc(O)c2C(=O)C2=C(O)C3(O)C(=O)C(C(N)=O)=C(O)CC3C(O)C21 (stereo not drawn) [CMT-8, 4-dedimethylaminodoxycycline]
- MMP-9 inhibitory effect [1, 5]: inhibitory effect was seen

Compound: CN(C)c1ccc(O)c2c1C[C@H]1C[C@H]3[C@H](N(C)C)C(O)=C(C(N)=O)C(=O)[C@@]3(O)C(O)=C1C2=O [minocycline HCl]
- minocycline serum level (average) [3]: 2.24 µg/mL

Compound: CN(C)[C@@H]1C(O)=C(C(N)=O)C(=O)[C@@]2(O)C(O)=C3C(=O)c4c(O)cccc4[C@@](C)(O)[C@H]3C[C@@H]12 [tetracycline HCl]
- peak plasma concentration [4]: approximately 3 μg/ml

Compound: CN(C)[C@@H]1C(O)=C(C(N)=O)C(=O)[C@@]2(O)C(O)=C3C(=O)c4c(O)cccc4[C@@](C)(O)[C@H]3C[C@@H]12 [tetracycline]
- MMP-9 inhibitory effect [1, 5]: no significant inhibitory effect
- expression of MMP-9 / MMP-9 synthesis ([1]; 30 μM, stenotic tricuspid valve tissue incubated for ten days): had an inhibitory effect on MMP-9 synthesis, but only at the end of the culture
